Reference: ChEMBL document CHEMBL1201862, “PubChem BioAssay data set” (2004)
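96-well plates; 48 h exposure; 5 concentrations. Endpoints by linear interpolation between flanking doses. Not reached: highest tested concentration assigned. Abbreviation: GI50, concentration required for 50% inhibition of growth.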 The source made the active and inactive calls. Cut-off read from the data, not from the text of the source: active = GI50 up to about 1.1 µM and inactive = higher.

Experiments:
Test in all cases: inhibition of tumour cell growth, NCI panel, 48 h
HCC 2998 = tested on: HCC 2998
T47D = tested on: T47D
HCT-116 = tested on: HCT-116
IGROV-1 = tested on: IGROV-1
DU-145 = tested on: DU-145
SK-OV-3 = tested on: SK-OV-3
UACC-62 = tested on: UACC-62
ACHN = tested on: ACHN
M14 = tested on: M14
U-251 = tested on: U-251
OVCAR-4 = tested on: OVCAR-4
LOX IMVI = tested on: LOX IMVI
NCI/ADR-RES = tested on: NCI/ADR-RES
HT-29 = tested on: HT-29
SK-MEL-5 = tested on: SK-MEL-5
PC-3 = tested on: PC-3
SR = tested on: SR
MDA-N = tested on: MDA-N
EKVX = tested on: EKVX

## CSC1=N/C(=C\c2c[nH]c3ccccc23)C(=O)N1
HCC 2998
  GI50: 21.9 µM (inactive)
T47D
  GI50: 53.2 µM (inactive)
HCT-116
  GI50: 70.3 µM (inactive)
IGROV-1
  GI50: 67.6 µM (inactive)
DU-145
  GI50: 96.8 µM (inactive)
SK-OV-3
  GI50: > 100 µM (inactive)
UACC-62
  GI50: 92.9 µM (inactive)
ACHN
  GI50: 44.4 µM (inactive)
M14
  GI50: 73.6 µM (inactive)
U-251
  GI50: 56.4 µM (inactive)
OVCAR-4
  GI50: 71.4 µM (inactive)
LOX IMVI
  GI50: 78.3 µM (inactive)
NCI/ADR-RES
  GI50: 85.7 µM (inactive)
HT-29
  GI50: 31.6 µM (inactive)
SK-MEL-5
  GI50: 39.4 µM (inactive)
PC-3
  GI50: 44.7 µM (inactive)
SR
  GI50: 97.7 µM (inactive)

## COC(=O)c1ccccc1C1CN=NC12Cc1c(C)cccc1C2=O (configuration not stated)
HCC 2998
  GI50: > 100 µM (inactive)
T47D
  GI50: 52.7 µM (inactive)
HCT-116
  GI50: 69.2 µM (inactive)
MDA-N
  GI50: > 100 µM (inactive)
IGROV-1
  GI50: > 100 µM (inactive)
DU-145
  GI50: > 100 µM (inactive)
SK-OV-3
  GI50: > 100 µM (inactive)
UACC-62
  GI50: > 100 µM (inactive)
ACHN
  GI50: > 100 µM (inactive)
M14
  GI50: > 100 µM (inactive)
EKVX
  GI50: > 100 µM (inactive)
U-251
  GI50: 80.7 µM (inactive)
OVCAR-4
  GI50: > 100 µM (inactive)
LOX IMVI
  GI50: 45.1 µM (inactive)
NCI/ADR-RES
  GI50: 60.8 µM (inactive)
HT-29
  GI50: > 100 µM (inactive)
SK-MEL-5
  GI50: 90.2 µM (inactive)
SR
  GI50: > 100 µM (inactive)

## N[C@]1(C(=O)O)C[C@@H]2C(Br)=NO[C@@H]2C1
HCC 2998
  GI50: > 100 µM (inactive)
T47D
  GI50: > 100 µM (inactive)
HCT-116
  GI50: 56 µM (inactive)
DU-145
  GI50: > 100 µM (inactive)
SK-OV-3
  GI50: > 100 µM (inactive)
UACC-62
  GI50: > 100 µM (inactive)
ACHN
  GI50: > 100 µM (inactive)
M14
  GI50: > 100 µM (inactive)
EKVX
  GI50: 70.3 µM (inactive)
U-251
  GI50: > 100 µM (inactive)
OVCAR-4
  GI50: > 100 µM (inactive)
NCI/ADR-RES
  GI50: > 100 µM (inactive)
HT-29
  GI50: > 100 µM (inactive)
SK-MEL-5
  GI50: > 100 µM (inactive)
PC-3
  GI50: > 100 µM (inactive)
SR
  GI50: 78.9 µM (inactive)

## CN(C(=O)C12C3C4C1C1C2C3C41C(N)=O)C(C)(C)C (configuration not stated)
HCC 2998
  GI50: > 100 µM (inactive)
HCT-116
  GI50: > 100 µM (inactive)
IGROV-1
  GI50: > 100 µM (inactive)
SK-OV-3
  GI50: > 100 µM (inactive)
UACC-62
  GI50: > 100 µM (inactive)
ACHN
  GI50: > 100 µM (inactive)
M14
  GI50: > 100 µM (inactive)
EKVX
  GI50: > 100 µM (inactive)
OVCAR-4
  GI50: > 100 µM (inactive)
HT-29
  GI50: > 100 µM (inactive)
SK-MEL-5
  GI50: > 100 µM (inactive)
SR
  GI50: > 100 µM (inactive)

## COC(=O)/C=C\COCC1C2CCC(=O)C21 (configuration not stated)
HCC 2998
  GI50: > 25 µM (inactive)
HCT-116
  GI50: 16.3 µM (inactive)
MDA-N
  GI50: > 25 µM (inactive)
IGROV-1
  GI50: 10.5 µM (inactive)
DU-145
  GI50: > 25 µM (inactive)
SK-OV-3
  GI50: > 25 µM (inactive)
UACC-62
  GI50: 16.4 µM (inactive)
ACHN
  GI50: 11.6 µM (inactive)
M14
  GI50: 8.36 µM (inactive)
EKVX
  GI50: 9.16 µM (inactive)
U-251
  GI50: > 25 µM (inactive)
OVCAR-4
  GI50: > 25 µM (inactive)
LOX IMVI
  GI50: 14.5 µM (inactive)
NCI/ADR-RES
  GI50: 17.4 µM (inactive)
HT-29
  GI50: 6.05 µM (inactive)
SK-MEL-5
  GI50: 22.9 µM (inactive)
PC-3
  GI50: > 25 µM (inactive)
SR
  GI50: 8.3 µM (inactive)

## CC(C)(C)[C@H]1NC(=O)CN1C(=O)OCc1ccccc1
HCC 2998
  GI50: > 100 µM (inactive)
T47D
  GI50: 60.8 µM (inactive)
HCT-116
  GI50: 67.3 µM (inactive)
IGROV-1
  GI50: > 100 µM (inactive)
DU-145
  GI50: > 100 µM (inactive)
SK-OV-3
  GI50: > 100 µM (inactive)
UACC-62
  GI50: > 100 µM (inactive)
ACHN
  GI50: 82.2 µM (inactive)
M14
  GI50: > 100 µM (inactive)
EKVX
  GI50: > 100 µM (inactive)
U-251
  GI50: 82 µM (inactive)
OVCAR-4
  GI50: > 100 µM (inactive)
LOX IMVI
  GI50: 43.6 µM (inactive)
NCI/ADR-RES
  GI50: > 100 µM (inactive)
HT-29
  GI50: > 100 µM (inactive)
SK-MEL-5
  GI50: 85.9 µM (inactive)
PC-3
  GI50: 36.7 µM (inactive)
SR
  GI50: 20 µM (inactive)

## O=c1oc(-c2ccc(O)c(O)c2)cc2cccc(O)c12 [THUNBERGINOL A]
HCC 2998
  GI50: 12.8 µM (inactive)
T47D
  GI50: 0.871 µM (active)
HCT-116
  GI50: 10.3 µM (inactive)
IGROV-1
  GI50: 6.19 µM (inactive)
DU-145
  GI50: 23.8 µM (inactive)
SK-OV-3
  GI50: 29.4 µM (inactive)
ACHN
  GI50: 21.4 µM (inactive)
M14
  GI50: 19.5 µM (inactive)
EKVX
  GI50: 14.1 µM (inactive)
OVCAR-4
  GI50: 20.1 µM (inactive)
NCI/ADR-RES
  GI50: 14.6 µM (inactive)
SK-MEL-5
  GI50: 9.4 µM (inactive)
PC-3
  GI50: 11.1 µM (inactive)
